The target in this assay is T1, MBP-ANLRP3-HIS (Homo sapiens, UniProt Q96P20, K142A).
T1 construct: made in house; host or cells: Sf21 (IPLB-Sf21-AE) insect cells
Briefly: ATPase activity, ADP-Glo Kinase Assay (Promega). It counts as biochemical. Conditions: read-out: Km of ATP. How it is done:
Peptide mass fingerprinting confirmed the protein identity while intact mass analysis confirmed the overall integrity of the protein and indicated the loss of the amino-terminal methionine. The theoretical molecular weight and isoelectric point (pI) of MBP-NLRP3-HIS are 145.30 kDa and 6.2, respectively. […] MBP-ANLRP3-HIS protein functionality was assessed based on ATPase activity using an ADP-Glo Kinase Assay (Promega). […] This protein construct was shown via its ATPase activity to have acceptable stability up to 2 hours in conditions mimicking one round of selection in the DEL screen.

The structures appear in SMILES notation.

Regarding `Nc1ncnc2c1ncn2[C@@H]1O[C@H](COP(=O)(O)OP(=O)(O)OP(=O)(O)O)[C@@H](O)[C@H]1O` [ATP], the Km turned out to be 3.08 µM.

For orientation: Km means the substrate concentration at which the rate is half of its maximum.

The values are drawn from patent US20250155452A1, “NLRP3 Variants & Library Screen for NLRP3 Inhibitors with the Same” (BioAge Labs, Inc., priority 2023, published 2025).
